Results from patent US12109197B2, “Combinations of β-lactam compounds and probenecid and uses thereof” (Iterum Therapeutics International Limited, priority 2018, dated 2024).
Like-named read-outs stand apart in the source and are kept apart here. Values belong to the compound of their own block, whether it stands above or below them.

What was measured:
[1] = Method: Subjects were to be dosed twice a day (every 12 hours) for 6 days and on Day 7 they were to be dosed once. All treatment groups could be run in parallel or sequentially. Subjects were allocated based on the randomization list. Randomization numbers were assigned sequentially as subjects entered into groups on the basis of their order of entry into the study. Subjects who withdrew for reasons unrelated to safety may have been replaced. Blood samples were obtained at prespecified intervals in order to characterize pharmacokinetics.
[2] = Multiple-dose study of sulopenem delivered intravenously: plasma pharmacokinetics; format: in vivo, human; settings: for AUC(0-inf) / AUC(0-t) / Cmax / half-life / Tmax / CL renal: human, plasma, iv; for Tmax: median [range]; for Rac: accumulation ratio
Method: The pharmacokinetics of sulopenem delivered intravenously were studied in a randomized, investigator-blind, subject-blind, sponsor-open, placebo-controlled, multiple-dose study of sulopenem. There were 5 cohorts dosed. Each subject was dosed for up to 14 days. Each cohort consisted of 10 subjects.

Porphyromonas gingivalis = settings: Ednie and Appelbaum 2009; cited from earlier work
[3] = Dacey and Sande 1974; cited from earlier work
[4] = 800 mg, intravenous 800 mg (3 h BID), Day 1
[5] = 800 mg, intravenous 800 mg (3 h BID), Day 14
[6] = 1200 mg, intravenous 1200 mg (1 h BID), Day 1
[7] = 1200 mg, intravenous 1200 mg (1 h BID), Day 14
[8] = 1200 mg, intravenous 1200 mg ([…] BID), Day 1
[9] = 1200 mg, intravenous 1200 mg ([…] BID), Day 14
[10] = 1600 mg, intravenous 1600 mg (1.5 h BID), Day 1
[11] = 1600 mg, intravenous 1600 mg (1.5 h BID), Day 14
[12] = 2000 mg, intravenous 2000 mg (1.5 h BID), Day 1

AUC of sulopenem on Day 7 compared with Day 1 ([1]; administered alone through the oral route): lower than that on Day 1
SMILES: CCOC(C)(C)C(=O)OCOC(=O)C1=C(S[C@H]2CC[S@@+]([O-])C2)S[C@@H]2[C@@H]([C@@H](C)O)C(=O)N12 [Compound III-1b]
AUC of sulopenem on Day 7 compared with Day 1 ([1]; co-administered with probenecid): increased on Day 7 beyond that seen on Day 1

AUC(0-inf) [2, 4]: 22400 ng·h/mL
AUC(0-t) [2, 4]: 22300 ng·h/mL
Cmax [2, 4]: 7270 ng/mL
half-life [2, 4]: 0.825 h
Tmax [2, 4]: 2 h
AUC(0-inf) [2, 5]: 26500 ng·h/mL
AUC(0-t) [2, 5]: 26400 ng·h/mL
CL renal [2, 5]: 257 mL/min
Cmax [2, 5]: 8970 ng/mL
half-life [2, 5]: 0.889 h
Tmax [2, 5]: 2 h
AUC(0-inf) [2, 6]: 42300 ng·h/mL
AUC(0-t) [2, 6]: 42200 ng·h/mL
Cmax [2, 6]: 32500 ng/mL
half-life [2, 6]: 1.04 h
Tmax [2, 6]: 1 h
AUC(0-inf) [2, 7]: 41400 ng·h/mL
AUC(0-t) [2, 7]: 41300 ng·h/mL
CL renal [2, 7]: 245 mL/min
Cmax [2, 7]: 30700 ng/mL
half-life [2, 7]: 1.05 h
Tmax [2, 7]: 1 h
AUC(0-inf) [2, 8]: 41900 ng·h/mL
AUC(0-t) [2, 8]: 41800 ng·h/mL
Cmax [2, 8]: 16600 ng/mL
half-life [2, 8]: 1.12 h
Tmax [2, 8]: 2.25 h
AUC(0-inf) [2, 9]: 34600 ng·h/mL
AUC(0-t) [2, 9]: 34500 ng·h/mL
CL renal [2, 9]: 313 mL/min
Cmax [2, 9]: 13500 ng/mL
half-life [2, 9]: 1.01 h
Tmax [2, 9]: 2 h
AUC(0-inf) [2, 10]: 67300 ng·h/mL
AUC(0-t) [2, 10]: 67100 ng·h/mL
Cmax [2, 10]: 40100 ng/mL
half-life [2, 10]: 1.04 h
Tmax [2, 10]: 1.5 h
AUC(0-inf) [2, 11]: 54900 ng·h/mL
AUC(0-t) [2, 11]: 54700 ng·h/mL
CL renal [2, 11]: 327 mL/min
Cmax [2, 11]: 31800 ng/mL
half-life [2, 11]: 1.2 h
Tmax [2, 11]: 1.25 h
AUC(0-inf) [2, 12]: 90300 ng·h/mL
AUC(0-t) [2, 12]: 90100 ng·h/mL
Cmax [2, 12]: 51500 ng/mL
half-life [2, 12]: 1.12 h
Tmax [2, 12]: 1.5 h
Rac ([2]; intravenous 800 mg (3 h BID), Day 14): 1.15 (29)
Rac ([2]; intravenous 1200 mg (1 h BID), Day 14): 0.928 (17)
Rac ([2]; intravenous 1200 mg ([…] BID), Day 14): 0.841 (9)
Rac ([2]; intravenous 1600 mg (1.5 h BID), Day 14): 0.791 (9)
SMILES: C[C@@H](O)[C@H]1C(=O)N2C(C(=O)O)=C(S[C@H]3CC[S@@+]([O-])C3)S[C@H]12 [sulopenem]
activity against Porphyromonas gingivalis (Porphyromonas gingivalis): active

SMILES: CCCN(CCC)S(=O)(=O)c1ccc(C(=O)O)cc1 [probenecid]
effect on concentrations of β-lactam compounds in the cerebrospinal fluid [3]: increase the concentrations of β-lactam compounds in the cerebrospinal fluid
